Experiments:
[1] = system: Ca2+ oscillations in somatosensory cortex slices; experiment: Mitochondrial Ca2+ oscillations (bioluminescence) in organotypic cortical slices from mtGA transgenic mice; format: cell-based, mouse; conditions: D-APV 50 μM; slices from P4 mtGA mice, 4-5 days in culture
cortical neurons = experiment: Single-cell Ca2+ induced bioluminescence in cortical neurons transfected with GA; format: cell-based; conditions: GA reconstituted with h coelenterazine
Protocol: Cultures were plated on to glass-bottomed dishes and mounted to a stage adapter on a fully automated inverted microscope mounted in a black-box. GFP-Aequorin was reconstituted with 2.5-5 μM coelenterazine for 30 minutes at 37° C. Incubation of cells with coelenterazine that had been transfected with SynGA was undertaken at room temperature to reduce the consumption of the photoprotein during the reconstitution process. Cells were perfused with tyrodes buffer. Prior to bath application of NMDA, cells were perfused for 1 minute without Mg^2+. All recordings were made at room temperature (22-25° C.). […]
The fluorescence/bioluminescence wide field microscopy system was custom built by ScienceWares, Inc. The system includes a fully automated inverted microscope (200M, Zeiss Germany) and is housed in a light-tight dark box. […] Low level light emission (photon rate <100 kHz), was collected using an Image Photon Detector (IPD 3, Photek Ltd.) connected to the baseport of the microscope, which assigns an X, Y coordinate and time point for each detected photon (Miller et al., 1994). The system is fully controlled by the data acquisition software, which also converts single photon events into an image that can be superimposed with brightfield or fluorescence images made by a connected CCD camera to the C-port (Coolsnap HQ, Roper Scientific). […]

With `N[C@H](CCCP(=O)(O)O)C(=O)O` [D-APV] the “block of Ca2+ oscillations generated by removal of Mg2+ from the buffer” value [1] was “completely and reversibly blocked”.
For `[Cl-].[K+]` [KCl], the “Ca2+ induced bioluminescence signal after stimulation” value (cortical neurons; KCl 90 mM) was “robust signal”.
In the case of `CN[C@H](CC(=O)O)C(=O)O` [NMDA], the “Ca2+ induced bioluminescence signal after stimulation” value (cortical neurons; NMDA 100 μM) is reported as “robust signal”.

From patent US8263821B2, “Non-invasive real-time in vivo bioluminescence imaging of local CaÂ2+ dynamics in living organisms” (priority 2004, dated 2012)
